Data published in ChEMBL document CHEMBL6109152, “Harnessing the SPOP E3 Ubiquitin Ligase via a Bridged Proteolysis Targeting Chimera (PROTAC) Strategy for Targeted Protein Degradation” (J Med Chem, 2025).
Calls of active or inactive are those of the source. The rule behind the calls is not given here.

Tests used:
[1] = target: T1, Speckle-type POZ protein-Bromodomain-containing protein 4 (Homo sapiens, UniProt O60885+O43791); experiment: PROTAC activity at SPOP/BRD4-L in human HT-29 cells assessed as induction of BRD4 long isoform degradation at 0.5 to 5 uM incubated for 24 hrs by Western blotting analysis; format: cell-based; settings: dose 0.5-5 µM
[2] = target: T1, Speckle-type POZ protein-Bromodomain-containing protein 4; experiment: PROTAC activity at SPOP/BRD4-S in human HT-29 cells assessed as induction of BRD4 short isoform degradation at 0.5 to 5 uM incubated for 24 hrs by Western blotting analysis; format: cell-based; settings: dose 0.5-5 µM
HT-29 [3] = experiment: Binding affinity to BRD4-S/GLP/SPOP in human HT-29 cells assessed as compound-BRD4-GLP-SPOP quaternary complex formation at 20 to 100 uM incubated for 1 hrs by pulldown based Western blot analysis; format: cell-based; settings: dose 20-100 µM
HEK293T = experiment: Binding affinity to BRD4-S/GLP/SPOP in HEK293T cells assessed as compound-BRD4-GLP-SPOP quaternary complex formation at 20 to 100 uM incubated for 1 hrs by pulldown based Western blot analysis; format: cell-based; settings: Homo sapiens, dose 20-100 µM
[4] = target: T1, Speckle-type POZ protein-Bromodomain-containing protein 4; experiment: PROTAC activity at SPOP/BRD4-S in human HT-29 cells assessed as induction of BRD4 short isoform degradation at 5 uM incubated for 24 hrs by Western blotting analysis relative to control; format: cell-based
HT-29 [5] = experiment: Effect on BRD4 long isoform mRNA expression level in human HT-29 cells at 5 uM incubated for 24 hrs by RT-qPCR analysis; format: functional, cell-based
HT-29 [6] = experiment: Effect on BRD4 short isoform mRNA expression level in human HT-29 cells at 5 uM incubated for 24 hrs by RT-qPCR analysis; format: functional, cell-based
HT-29 [7] = experiment: Effect on BRD3 mRNA expression level in human HT-29 cells at 5 uM incubated for 24 hrs by RT-qPCR analysis; format: functional, cell-based
HT-29 [8] = experiment: Effect on BRD2 mRNA expression level in human HT-29 cells at 5 uM incubated for 24 hrs by RT-qPCR analysis; format: functional, cell-based
HT-29 [9] = experiment: Effect on c-MYC mRNA expression level in human HT-29 cells at 5 uM incubated for 24 hrs by RT-qPCR analysis; format: functional, cell-based
HT-29 [10] = experiment: Antiproliferative activity against human HT-29 cells assessed as reduction in cell growth up to 10 uM incubated for 3 days by WST-8 reagent based assay; format: functional; settings: time 3.0 day

T1 sequence (O43791 whole entry, looked up, other chains not shown, canonical isoform): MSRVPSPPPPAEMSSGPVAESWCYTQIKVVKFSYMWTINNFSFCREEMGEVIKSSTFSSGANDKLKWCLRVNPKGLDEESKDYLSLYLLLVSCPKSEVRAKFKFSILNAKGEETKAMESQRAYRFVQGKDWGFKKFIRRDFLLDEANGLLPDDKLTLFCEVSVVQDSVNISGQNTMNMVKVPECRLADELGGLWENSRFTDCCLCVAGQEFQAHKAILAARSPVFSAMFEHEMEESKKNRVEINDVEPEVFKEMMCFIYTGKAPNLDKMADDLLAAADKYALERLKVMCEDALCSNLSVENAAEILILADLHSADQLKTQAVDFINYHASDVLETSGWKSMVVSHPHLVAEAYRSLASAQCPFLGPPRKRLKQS

SMILES	Activity [1]	Activity [2]	further results
COc1cc2c(NC3CCN(CCCC(=O)NCCCNC(=O)C[C@@H]4N=C(c5ccc(Cl)cc5)c5c(sc(C)c5C)-n5c(C)nnc54)CC3)cc(N3CCOCC3)nc2cc1OCCCN1CCCC1	inactive	inactive	
COc1cc2c(NC3CCN(CCCC(=O)NCCCCCCCNC(=O)C[C@@H]4N=C(c5ccc(Cl)cc5)c5c(sc(C)c5C)-n5c(C)nnc54)CC3)cc(N3CCOCC3)nc2cc1OCCCN1CCCC1	inactive	inactive	
COc1cc2c(NC3CCN(CCCC(=O)NCCCCCCCCCCNC(=O)C[C@@H]4N=C(c5ccc(NC(=O)CCOCCOCCOCCOCCOCCOCCNC(=O)CCCC[C@@H]6SC[C@@H]7NC(=O)N[C@@H]76)cc5)c5c(sc(C)c5C)-n5c(C)nnc54)CC3)cc(N3CCOCC3)nc2cc1OCCCN1CCCC1			Activity (HT-29 [3]): Active; Activity (HEK293T): Active
COc1cc2c(NC3CCN(CCCC(=O)NCCCCCNC(=O)C[C@@H]4N=C(c5ccc(Cl)cc5)c5c(sc(C)c5C)-n5c(C)nnc54)CC3)cc(N3CCOCC3)nc2cc1OCCCN1CCCC1	inactive	inactive	
COc1cc2c(NC3CCN(CCCC(=O)NCCNC(=O)C[C@@H]4N=C(c5ccc(Cl)cc5)c5c(sc(C)c5C)-n5c(C)nnc54)CC3)cc(N3CCOCC3)nc2cc1OCCCN1CCCC1	inactive	inactive	
COc1cc2c(NC3CCN(CCCC(=O)NCCCCCCCCCCNC(=O)C[C@H]4N=C(c5ccc(Cl)cc5)c5c(sc(C)c5C)-n5c(C)nnc54)CC3)cc(N3CCOCC3)nc2cc1OCCCN1CCCC1			Activity [4]: inactive; Activity (HT-29 [5]): inactive; Activity (HT-29 [6]): inactive; Activity (HT-29 [7]): inactive; Activity (HT-29 [8]): inactive; Activity (HT-29 [9]): inactive; Activity (HT-29 [10]): inactive
COc1cc2c(NC3CCN(CCCC(=O)NCCCCNC(=O)C[C@@H]4N=C(c5ccc(Cl)cc5)c5c(sc(C)c5C)-n5c(C)nnc54)CC3)cc(N3CCOCC3)nc2cc1OCCCN1CCCC1	inactive	inactive	
COc1cc2c(NC3CCN(CCCC(=O)NCCCCCCNC(=O)C[C@@H]4N=C(c5ccc(Cl)cc5)c5c(sc(C)c5C)-n5c(C)nnc54)CC3)cc(N3CCOCC3)nc2cc1OCCCN1CCCC1	inactive	inactive	
COc1cc2c(N(C)C3CCN(CCCC(=O)NCCCCCCCCCCNC(=O)C[C@@H]4N=C(c5ccc(Cl)cc5)c5c(sc(C)c5C)-n5c(C)nnc54)CC3)cc(N3CCOCC3)nc2cc1OCCCN1CCCC1			Activity [4]: inactive; Activity (HT-29 [5]): inactive; Activity (HT-29 [6]): inactive; Activity (HT-29 [7]): inactive; Activity (HT-29 [8]): inactive; Activity (HT-29 [9]): inactive; Activity (HT-29 [10]): inactive
COc1cc2c(NC3CCN(CCCC(=O)NCCCCCCCCNC(=O)C[C@@H]4N=C(c5ccc(Cl)cc5)c5c(sc(C)c5C)-n5c(C)nnc54)CC3)cc(N3CCOCC3)nc2cc1OCCCN1CCCC1	inactive	Active	
COc1cc2c(NC3CCN(CCCC(=O)NCCCCCCCCCNC(=O)C[C@@H]4N=C(c5ccc(Cl)cc5)c5c(sc(C)c5C)-n5c(C)nnc54)CC3)cc(N3CCOCC3)nc2cc1OCCCN1CCCC1	inactive	Active	
